In patent US9452986B2, “6-heteroaryloxy- or 6-aryloxy-quinoline-2-carboxamides and method of use” (AbbVie Inc., priority 2014, dated 2016):
Read-outs that look alike come from different tables or passages of the source.

Biological target: recombinant human Nav1.7 (Homo sapiens (Human), UniProt Q15858)
Assay: FRET-based membrane potential assay, recombinant human sodium channel Nav1.7
Type: cell-based
Conditions: read-out: FRET-Membrane Potential Nav1.7 IC50
In short: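 Channel activation used veratridine at its EC80, set by a dilution curve each experiment, together with Leiurus scorpion venom, added 3 min after compound. Membrane-potential ratio signals from FLIPR Tetra in HEPES-buffered HBSS were fitted to a four-parameter Hill equation for percent inhibition and IC50.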

[1] = HEK293 cells stably expressing recombinant human Nav1.7, veratridine + scorpion venom depolarization

Sequence of recombinant human Nav1.7 (Q15858 whole entry): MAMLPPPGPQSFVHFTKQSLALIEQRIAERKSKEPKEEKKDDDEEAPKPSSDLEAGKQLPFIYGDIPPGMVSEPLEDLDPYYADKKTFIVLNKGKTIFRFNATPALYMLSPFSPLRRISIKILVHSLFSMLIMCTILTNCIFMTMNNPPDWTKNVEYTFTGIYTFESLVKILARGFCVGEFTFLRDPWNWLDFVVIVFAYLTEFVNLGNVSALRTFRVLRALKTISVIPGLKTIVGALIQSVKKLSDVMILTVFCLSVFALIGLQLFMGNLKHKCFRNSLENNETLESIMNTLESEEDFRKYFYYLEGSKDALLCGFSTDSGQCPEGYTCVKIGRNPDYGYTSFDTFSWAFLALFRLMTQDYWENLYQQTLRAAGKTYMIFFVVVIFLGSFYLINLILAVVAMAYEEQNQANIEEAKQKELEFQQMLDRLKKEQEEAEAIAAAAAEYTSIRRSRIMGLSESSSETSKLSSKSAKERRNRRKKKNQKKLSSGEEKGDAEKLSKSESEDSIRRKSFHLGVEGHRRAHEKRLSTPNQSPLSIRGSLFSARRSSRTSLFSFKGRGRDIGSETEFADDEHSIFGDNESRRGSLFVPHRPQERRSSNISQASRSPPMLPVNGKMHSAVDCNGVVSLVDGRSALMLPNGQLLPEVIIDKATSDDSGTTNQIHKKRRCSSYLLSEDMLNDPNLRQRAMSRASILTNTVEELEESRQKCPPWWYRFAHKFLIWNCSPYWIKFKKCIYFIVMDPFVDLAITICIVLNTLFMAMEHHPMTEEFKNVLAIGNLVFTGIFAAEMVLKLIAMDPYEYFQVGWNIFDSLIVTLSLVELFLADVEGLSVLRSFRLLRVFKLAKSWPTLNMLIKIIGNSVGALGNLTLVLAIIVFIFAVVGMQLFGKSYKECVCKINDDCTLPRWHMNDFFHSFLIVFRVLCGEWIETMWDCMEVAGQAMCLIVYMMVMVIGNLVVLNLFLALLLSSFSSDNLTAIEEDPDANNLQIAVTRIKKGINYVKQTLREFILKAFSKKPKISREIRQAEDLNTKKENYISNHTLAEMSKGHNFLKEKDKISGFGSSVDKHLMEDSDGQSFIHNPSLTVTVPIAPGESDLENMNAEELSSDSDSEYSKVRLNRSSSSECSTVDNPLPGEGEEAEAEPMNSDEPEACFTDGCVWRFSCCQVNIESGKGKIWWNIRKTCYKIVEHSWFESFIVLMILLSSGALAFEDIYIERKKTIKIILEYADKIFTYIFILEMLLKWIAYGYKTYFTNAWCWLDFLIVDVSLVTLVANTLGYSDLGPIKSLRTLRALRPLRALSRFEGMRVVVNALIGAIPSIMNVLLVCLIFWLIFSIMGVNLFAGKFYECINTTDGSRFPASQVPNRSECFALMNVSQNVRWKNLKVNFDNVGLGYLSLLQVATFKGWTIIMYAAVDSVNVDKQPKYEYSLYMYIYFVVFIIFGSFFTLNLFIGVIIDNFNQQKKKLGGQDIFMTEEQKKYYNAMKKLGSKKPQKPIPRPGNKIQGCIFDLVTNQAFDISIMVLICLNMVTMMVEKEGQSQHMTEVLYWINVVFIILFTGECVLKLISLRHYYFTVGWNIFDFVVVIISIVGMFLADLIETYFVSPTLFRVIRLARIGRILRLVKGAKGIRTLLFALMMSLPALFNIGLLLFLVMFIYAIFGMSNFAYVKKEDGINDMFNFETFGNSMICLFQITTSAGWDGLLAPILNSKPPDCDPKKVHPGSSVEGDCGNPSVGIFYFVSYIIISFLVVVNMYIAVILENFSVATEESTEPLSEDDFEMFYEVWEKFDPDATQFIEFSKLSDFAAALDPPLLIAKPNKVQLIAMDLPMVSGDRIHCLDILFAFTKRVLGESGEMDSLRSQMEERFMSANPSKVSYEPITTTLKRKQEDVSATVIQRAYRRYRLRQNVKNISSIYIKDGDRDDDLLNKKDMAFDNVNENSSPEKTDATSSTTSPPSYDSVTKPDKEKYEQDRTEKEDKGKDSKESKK

Row | Compound | IC50 [1] [µM] | IC50 [µM]
1 | O=C(c1ccc2cc(Oc3ccc(C(F)(F)F)cn3)ccc2n1)N1CCC(N2C[C@@H]3C[C@H]2CO3)CC1 [Example 377, {4-[(1S,4S)-2-oxa-5-azabicyclo[2.2.1]hept-5-yl]piperidin-1-yl}(6-{[5-(trifluoromethyl)pyridin-2-yl]oxy}quinolin-2-yl)methanone] | 3.32 | –
2 | CNS(=O)(=O)N1CCN(C(=O)c2ccc3cc(Oc4ccc(C(F)(F)F)cn4)ccc3n2)CC1 [Example 235, N-methyl-4-[(6-{[5-(trifluoromethyl)pyridin-2-yl]oxy}quinolin-2-yl)carbonyl]piperazine-1-sulfonamide] | 2.36 | –
3 | O=C(c1ccc2cc(Oc3ccc(C(F)(F)F)cn3)ccc2n1)N1CCC[C@H](O)C1 [Example 582, [(3S)-3-hydroxypiperidin-1-yl](6-{[5-(trifluoromethyl)pyridin-2-yl]oxy}quinolin-2-yl)methanone] | – | 10.3
4 | COCCNC(=O)CN(C)C(=O)c1ccc2cc(Oc3ccc(C(F)(F)F)nc3)ccc2n1 [Example 514, N-{2-[(2-methoxyethyl)amino]-2-oxoethyl}-N-methyl-6-{[6-(trifluoromethyl)pyridin-3-yl]oxy}quinoline-2-carboxamide] | 12.9 | –
5 | N#Cc1ccc(Oc2ccc3nc(C(=O)NCc4cccs4)ccc3c2)cc1 [Example 92, 6-(4-cyanophenoxy)-N-(2-thienylmethyl)quinoline-2-carboxamide] | 9.83 | –
6 | COc1cccc(N2CCN(C(=O)c3ccc4cc(Oc5ccc(C(F)(F)F)cn5)ccc4n3)CC2=O)c1 [Example 498, 1-(3-methoxyphenyl)-4-[(6-{[5-(trifluoromethyl)pyridin-2-yl]oxy}quinolin-2-yl)carbonyl]piperazin-2-one] | 0.923 | –
7 | O=C(NCCC(=O)N1CCCCC1)c1ccc2cc(Oc3ccc(C(F)(F)F)nc3)ccc2n1 [Example 520, N-[3-oxo-3-(piperidin-1-yl)propyl]-6-{[6-(trifluoromethyl)pyridin-3-yl]oxy}quinoline-2-carboxamide] | 0.945 | –
8 | CN1CCN(C(=O)c2ccc3cc(Oc4ccc(C(F)(F)F)cn4)ccc3n2)CC1 [Example 211, (4-methylpiperazin-1-yl)(6-{[5-(trifluoromethyl)pyridin-2-yl]oxy}quinolin-2-yl)methanone] | 1.93 | –
9 | CC(=O)Nc1ncc(S(=O)(=O)N2CCN(C(=O)c3ccc4cc(Oc5ccc(C(F)(F)F)cn5)ccc4n3)CC2)s1 [Example 389, N-[5-({4-[(6-{[5-(trifluoromethyl)pyridin-2-yl]oxy}quinolin-2-yl)carbonyl]piperazin-1-yl}sulfonyl)-1,3-thiazol-2-yl]acetamide] | 9.22 | –
10 | O=C(c1ccc2cc(Oc3ccc(C(F)(F)F)cn3)ccc2n1)N1CC(O)C(F)C1 (centres unmarked) [Example 292, (3-fluoro-4-hydroxypyrrolidin-1-yl)(6-{[5-(trifluoromethyl)pyridin-2-yl]oxy}quinolin-2-yl)methanone] | 3.26 | –
11 | O=C(c1ccc2cc(Oc3ccc(C(F)(F)F)cn3)ccc2n1)N1CCN(S(=O)(=O)N2CCOCC2)CC1 [Example 185, [4-(morpholin-4-ylsulfonyl)piperazin-1-yl](6-{[5-(trifluoromethyl)pyridin-2-yl]oxy}quinolin-2-yl)methanone] | > 20 | –
12 | N#Cc1ccc(Oc2ccc3nc(C(=O)NCc4cccnc4)ccc3c2)cc1 [Example 89, 6-(4-cyanophenoxy)-N-(pyridin-3-ylmethyl)quinoline-2-carboxamide] | 1.52 | –
13 | O=C(c1ccc2cc(Oc3ncc(C(F)(F)F)cc3Br)ccc2n1)N1CCNCC1 [Example 295, (6-{[3-bromo-5-(trifluoromethyl)pyridin-2-yl]oxy}quinolin-2-yl)(piperazin-1-yl)methanone] | – | 3.2
14 | O=C(NC1CNC1)c1ccc2cc(Oc3ccc(C(F)(F)F)cn3)ccc2n1 [Example 216, N-(azetidin-3-yl)-6-{[5-(trifluoromethyl)pyridin-2-yl]oxy}quinoline-2-carboxamide] | 1.67 | –
15 | COCC1(F)CCN(C(=O)c2ccc3cc(Oc4ccc(C(F)(F)F)cn4)ccc3n2)C1 (centres unmarked) [Example 487, [3-fluoro-3-(methoxymethyl)pyrrolidin-1-yl](6-{[5-(trifluoromethyl)pyridin-2-yl]oxy}quinolin-2-yl)methanone] | 0.919 | –
16 | CS(=O)(=O)C1CN(C(=O)c2ccc3cc(Oc4ccc(C(F)F)cn4)ccc3n2)C1 [Example 479, (6-{[5-(difluoromethyl)pyridin-2-yl]oxy}quinolin-2-yl)[3-(methylsulfonyl)azetidin-1-yl]methanone] | 3.19 | –
17 | N#Cc1ccc(Oc2ccc3nc(C(=O)N4CCS(=O)(=O)CC4)ccc3c2)cc1 [Example 148, 4-({2[(1,1-dioxidothiomorpholin-4-yl)carbonyl]quinolin-6-yl}oxy)benzonitrile] | 12.1 | –
18 | O=C(NCCC(=O)N1CCCCC1)c1ccc2cc(Oc3ccc(C(F)F)cn3)ccc2n1 [Example 463, 6-{[5-(difluoromethyl)pyridin-2-yl]oxy}-N-[3-oxo-3-(piperidin-1-yl)propyl]quinoline-2-carboxamide] | 1.12 | –

Row | Compound | IC50 [1] [µM] | IC50 [µM]
19 | O=C(c1ccc2cc(Oc3ccc(C(F)(F)F)cn3)ccc2n1)N1CCN(C(=O)N2CCOCC2)CC1 [Example 299, morpholin-4-yl{4-[(6-{[5-(trifluoromethyl)pyridin-2-yl]oxy}quinolin-2-yl)carbonyl]piperazin-1-yl}methanone] | > 20 | –
20 | O=C(c1ccc2cc(Oc3ccc(C(F)(F)F)cn3)ccc2n1)N1C[C@@H]2C[C@H](CO)[C@H]1C2 [Example 258, [(1R,4R,6S)-6-(hydroxymethyl)-2-azabicyclo[2.2.1]hept-2-yl](6-{[5-(trifluoromethyl)pyridin-2-yl]oxy}quinolin-2-yl)methanone] | 6.13 | –
21 | O=C(c1ccc2cc(Oc3cccc(C(F)(F)F)n3)ccc2n1)N1CCNCC1 [Example 153, piperazin-1-yl(6-{[6-(trifluoromethyl)pyridin-2-yl]oxy}quinolin-2-yl)methanone] | – | 3.3
22 | CC(C)[C@@H]1CN(C(=O)c2ccc3cc(Oc4ccc(C(F)(F)F)cn4)ccc3n2)CCN1 [Example 263, [(3R)-3-isopropylpiperazin-1-yl](6-{[5-(trifluoromethyl)pyridin-2-yl]oxy}quinolin-2-yl)methanone] | 0.402 | –
23 | O=C(c1ccc2cc(Oc3ccc(C(F)(F)F)cn3)ccc2n1)N1CCC(N2C[C@H]3C[C@@H]2CO3)CC1 [Example 378, {4-[(1R,4R)-2-oxa-5-azabicyclo[2.2.1]hept-5-yl]piperidin-1-yl}(6-{[5-(trifluoromethyl)pyridin-2-yl]oxy}quinolin-2-yl)methanone] | 2.23 | –
24 | N#Cc1ccc(Oc2ccc3nc(C(=O)N4CCc5ccccc54)ccc3c2)cc1 [Example 111, 4-{[2-(2,3-dihydro-1H-indol-1-ylcarbonyl)quinolin-6-yl]oxy}benzonitrile] | – | > 20
25 | O=C(c1ccc2cc(Oc3ccc(C(F)(F)F)cn3)ccc2n1)N1CC[C@@H]2CN[C@@H]2C1 [Example 213, (1S,6R)-3,8-diazabicyclo[4.2.0]oct-3-yl(6-{[5-(trifluoromethyl)pyridin-2-yl]oxy}quinolin-2-yl)methanone] | 9.4 | –
26 | O=C1NCCN(C(=O)c2ccc3cc(Oc4ccc(C(F)(F)F)cn4)ccc3n2)C1c1ccccc1 (centres unmarked) [Example 208, 3-phenyl-4-[(6-{[5-(trifluoromethyl)pyridin-2-yl]oxy}quinolin-2-yl)carbonyl]piperazin-2-one] | – | 3.05
27 | O=C(c1ccc2cc(Oc3ccc(C(F)(F)F)cn3)ccc2n1)N1CCC(CO)CC1 [Example 265, [4-(hydroxymethyl)piperidin-1-yl](6-{[5-(trifluoromethyl)pyridin-2-yl]oxy}quinolin-2-yl)methanone] | 3.45 | –
28 | CN(C)CCCNC(=O)c1ccc2cc(Oc3ccc(C#N)cc3)ccc2n1 [Example 85, 6-(4-cyanophenoxy)-N-[3-(dimethylamino)propyl]quinoline-2-carboxamide] | – | 0.238
29 | O=C(c1ccc2cc(Oc3ccc(C(F)(F)F)cn3)ccc2n1)N1C[C@@H](F)C[C@@H]1CO [Example 495, [(2R,4S)-4-fluoro-2-(hydroxymethyl)pyrrolidin-1-yl](6-{[5-(trifluoromethyl)pyridin-2-yl]oxy}quinolin-2-yl)methanone] | 1.69 | –
30 | O=C(N[C@@H]1CCOC1=O)c1ccc2cc(Oc3ccc(C(F)(F)F)cn3)ccc2n1 [Example 530, N-[(3R)-2-oxotetrahydrofuran-3-yl]-6-{[5-(trifluoromethyl)pyridin-2-yl]oxy}quinoline-2-carboxamide] | 0.911 | –
31 | O=C(NCCC(=O)N1CCCC1)c1ccc2cc(Oc3ccc(C(F)(F)F)cn3)ccc2n1 [Example 445, N-[3-oxo-3-(pyrrolidin-1-yl)propyl]-6-{[5-(trifluoromethyl)pyridin-2-yl]oxy}quinoline-2-carboxamide] | 0.268 | –
32 | COC[C@@H]1CN(C(=O)c2ccc3cc(Oc4ccc(C(F)(F)F)cn4)ccc3n2)CCN1 [Example 593, [(3S)-3-(methoxymethyl)piperazin-1-yl](6-{[5-(trifluoromethyl)pyridin-2-yl]oxy}quinolin-2-yl)methanone] | – | 0.238
33 | O=C1CC(NC(=O)c2ccc3cc(Oc4ccc(C(F)F)cn4)ccc3n2)C1 [Example 592, 6-{[5-(difluoromethyl)pyridin-2-yl]oxy}-N-(3-oxocyclobutyl)quinoline-2-carboxamide] | 3.44 | –
34 | O=C(NC1CSC1)c1ccc2cc(Oc3ccc(C(F)(F)F)cn3)ccc2n1 [Example 499, N-(thietan-3-yl)-6-{[5-(trifluoromethyl)pyridin-2-yl]oxy}quinoline-2-carboxamide] | 0.938 | –
35 | O=C(N[C@@H]1CCN(C(=O)c2ccc3cc(Oc4ccc(C(F)(F)F)cn4)ccc3n2)C1)C1CC1 [Example 439, N-{(3R)-1-[(6-{[5-(trifluoromethyl)pyridin-2-yl]oxy}quinolin-2-yl)carbonyl]pyrrolidin-3-yl}cyclopropanecarboxamide] | 5.86 | –
